Reference: patent US5013544A, “Contraceptive methods and compositions” (The Victoria University of Manchester, priority 1988, dated 1991)

Columns and labels:
sperm (semen) = experiment: Spermicidal action in isotonic aqueous sucrose: % of sperm motile 1 minute after contact (Example 2); assay type: cell-based, human
Experimental: (§1) Chlorhexidine, as the diacetate salt, and/or nonoxynol-9 (50 μl. of an appropriate aqueous dilution) was dissolved in Tyrodes T6 balanced salt solution supplemented with 4 mg./ml. of human albumin. The solution was prepared and used immediately, by being mixed with 50 μl. of fresh human semen with a sperm concentration of at least 50 million per ml, and a motility of at least 80%, and incubated at 25 degrees C. for about 1 minute.
(§2) The motility of the sperm so treated was measured by one of two methods:
(§3) (1) If the concentration of chlorhexidine caused protein precipitation, motility was estimated by phase contrast microscopy at 200× magnification in a 10 μm deep counting chamber.
(§4) (2) If the solution remained optically clear, motility was measured by laser Doppler spectroscopy. This technique involves the analysis by auto-correlation of the fraction of the scattered laser light which contains the Doppler-shifted frequencies generated by interaction between the incident laser and the sperm head.
The procedure of Example 1 was repeated, using solutions of the specified compounds (nonoxenol-9 and chlorhexidine diacetate) in an isotonic aqueous solution of sucrose, the spermicidal action of nonoxenol-9 and chlorhexidine diacetate, derived from five examinations, each being measured in duplicate. The concentrations are the final values in semen.
The values expressed are the percentages, expressed as a mean, of the sperm which are motile 1 minute after contact with the spermicide.

human semen (sperm) = experiment: Inhibition of motility of human sperm, ~1 min, in Tyrodes T6 medium (Example 1); assay type: cell-based; settings: about 1 minute, 25 degrees C., Tyrodes T6 + human albumin
Experimental: as §1, §2, §3, §4

sperm = experiment: Site of spermicidal action (vagina, cervical mucus); settings: vagina and cervical mucus; no test described
[1] = Stability of spermicidal activity of chlorhexidine / composition in solution; assay type: physicochemical

| Compound | percentage of the sperm which are motile 1 minute after contact (mean) (sperm (semen); Nonoxynol-9 0.2 mg/ml, chlorhexidine 0, untreated 50.37) [%] | percentage of the sperm which are motile 1 minute after contact (mean) (sperm (semen); Nonoxynol-9 0.4 mg/ml, chlorhexidine 0, untreated 50.37) [%] | percentage of the sperm which are motile 1 minute after contact (mean) (sperm (semen); Nonoxynol-9 0.6 mg/ml, chlorhexidine 0, untreated 50.37) [%] | % Inhibition of motility (human semen (sperm); 0.5 mg./ml.) | % Inhibition of motility (human semen (sperm); 2 mg./ml.) [%] | site of spermicidal action (sperm) | percentage of the sperm which are motile 1 minute after contact (mean) (sperm (semen); Chlorhexidine 0.5 mg/ml, nonoxynol-9 0, untreated 50.37) [%] | percentage of the sperm which are motile 1 minute after contact (mean) (sperm (semen); Chlorhexidine 1.0 mg/ml, nonoxynol-9 0, untreated 50.37) [%] | percentage of the sperm which are motile 1 minute after contact (mean) (sperm (semen); Chlorhexidine 2.0 mg/ml, nonoxynol-9 0, untreated 50.37) [%] | percentage of the sperm which are motile 1 minute after contact (mean) (sperm (semen); Chlorhexidine 5.0 mg/ml, nonoxynol-9 0, untreated 50.37) [%] | loss of spermicidal activity ([1]; chloride ion at physiological concentrations) | tendency to lose spermicidal activity ([1]; in some circumstances and formulations, associated with certain anions) | stability of aqueous solution ([1]; isotonic aqueous sucrose solution) | inhibition at 2000 µg/mL (human semen (sperm); Sperm, 1 min, 2 mg./ml.) [%] |
| --- | --- | --- | --- | --- | --- | --- | --- | --- | --- | --- | --- | --- | --- | --- |
| Nonoxynol-9 | 31.09 | 0 | 0 | ZERO | 100 | only spermicidal in the vagina and does not enter the cervical mucus |  |  |  |  |  |  |  |  |
| [H]/N=C(\N/C(=N/[H])NCCCCCCNC(=N)NC(=N)Nc1ccc(Cl)cc1)Nc1ccc(Cl)cc1 [Chlorhexidine, 1:6-di-(N-p-chlorophenyl-diguanido)-hexane] |  |  |  | ZERO |  | acts as a spermicide both in the vagina and in the cervical mucus | 39.32 | 16.14 | 10.02 | 0 | lose its spermicidal activity in less than two hours | marked tendency to lose its spermicidal activity | remained stable for greater than three days | 5 |
